Results: patent US6777564B2, “Anthraquinone compound” (Industrial Technology Research Institute, priority 2001, dated 2004)
≈ marks a conversion by molar mass, not a printed value. Read-outs that look alike come from different tables or passages of the source.

Assays:
[1] = test system: ZR-75-1: human breast cell; experiment: anti-cancer activity test (cytotoxicity), ZR-75-1; assay type: cell-based; details: ZR-75-1 cells; for IC50: Homo sapiens
[2] = test system: LNCaP: human prostate cell; experiment: anti-cancer activity test (cytotoxicity), LNCaP; assay type: cell-based; details: LNCaP cells; for IC50: Homo sapiens
HIV-1 RT(p66) = biological target: T1, HIV-1 RT(p66) (Human immunodeficiency virus type 1 group M subtype B, UniProt P04585); experiment: anti-virus activity test, HIV-1 RT(p66) inhibition; assay type: biochemical; details: for activity inhibition (%) / inhibition at 200 µg/mL: at 200 μg/ml; for activity inhibition (%) / IC50 / inhibition at 200 µg/mL: HIV-1 RT(p66); for activity inhibition / anti-virus ability (in words): at the concentration of 200 μg/ml
T1 construct: 1-10 at 200 μg/ml to HIV-1 RT(p66)

[3] = test system: KB-V: drug resisteant KB cell; experiment: anti-cancer activity test (cytotoxicity), KB-V; assay type: cell-based, human; details: KB-V cells; for IC50: Homo sapiens
Lu1: human lung cell = experiment: anti-cancer activity test (cytotoxicity), Lu1; assay type: cell-based; details: Lu1 cells; for IC50: Homo sapiens
[4] = test system: A431: human squamous cell; experiment: anti-cancer activity test (cytotoxicity), A431; assay type: cell-based; details: A431 cells; for IC50: Homo sapiens, A-431
U373: human glioma cell = experiment: anti-cancer activity test (cytotoxicity), U373; assay type: cell-based; details: U373 cells; for IC50: Homo sapiens, U373 MG
[5] = test system: KB: human oral epidormaid Carcinama cell; experiment: anti-cancer activity test (cytotoxicity), KB; assay type: cell-based; details: KB cells; for IC50: Homo sapiens
Method: (§1) The compounds were further screened on 60 human cancer cell lines by Developmental Therapeutics Program Human Tumor Cell Line Screen set up by the National Cancer Institute of the U. S. A. The screening procedures are described briefly hereinafter. Cell suspensions that were diluted according to the particular cell type and the expected target cell density (5000-40,000 cells per well based on cell growth characteristics) were added by pipet (100 μL) into 96-well microtiterplates. Inoculates were allowed a preincubation period of 24 hours at 37° C. for stabilization. Dilutions at twice the intended test concentration were added in 100 μL aliquots to the microtiter plate wells at time zero. Usually, test compounds were evaluated at five 10-fold dilutions. In routine testing, the highest well concentration was 10^−4 M, but for the standard agents the highest well concentration used depended on the agent. Incubations lasted for 48 hours in 5% CO2 atmosphere and 100% humidity. The cells were assayed by using the sulforhodamine B assay. A plate reader was used to read the optical densities, and a microcomputer processed the optical densities into the special concentration parameters. The results of these tests with representative compounds of the present invention appear in Table 1 and 2

[6] = test system: HT-1088: human fibrosarcoma cell; experiment: anti-cancer activity test (cytotoxicity), HT; assay type: cell-based; details: HT cells; for IC50: Homo sapiens
Col2: human colon cell = experiment: anti-cancer activity test (cytotoxicity), Col2; assay type: cell-based; details: Col2 cells; for IC50: Homo sapiens
[7] = test system: P-388: mouse lymphaid Macrophage cell; experiment: anti-cancer activity test (cytotoxicity), P-388; assay type: cell-based; details: P-388 cells; for IC50: Mus musculus, P388
[8] = test system: Mel2: human melanoma cell; experiment: anti-cancer activity test (cytotoxicity), Mel2; assay type: cell-based; details: Mel2 cells; for IC50: Homo sapiens
BC-1: human breast cell = experiment: anti-cancer activity test (cytotoxicity), BC 1; assay type: cell-based; details: BC 1 cells; for IC50: Homo sapiens, BC1
human cancer cell lines = experiment: anti-cancer activity test, overall over the cell line panel; assay type: cell-based; details: summary of Table 1
Method: as §1

[9] = read-out: IC50 (μg/ml) (converted)

1-benzyl carbamidoacetamidoanthraquinone [Example 1]
IC50 ZR-75-1 [1]: >20 µg/mL | IC50 LNCaP [2]: 14.7 µg/mL | activity inhibition (%) (HIV-1 RT(p66)): 47.0% | activity inhibition / anti-virus ability (in words) (HIV-1 RT(p66)): anti-virus ability but not so strong as the others | IC50 KB-V (+VLB) ([3]; with vinblastine (+VLB)): 3.8 µg/mL | IC50 KB-V (−VLB) ([3]; without vinblastine (−VLB)): >20 µg/mL | IC50 Lu1 (Lu1: human lung cell): >20 µg/mL | IC50 A431 [4]: >20 µg/mL | IC50 U373 (U373: human glioma cell): >20 µg/mL | IC50 KB [5]: >20 µg/mL | IC50 HT [6]: 13.9 µg/mL | IC50 Col2 (Col2: human colon cell): >20 µg/mL | IC50 P-388 [7]: >5 µg/mL | IC50 Mel2 [8]: >20 µg/mL | IC50 BC 1 (BC-1: human breast cell): >20 µg/mL

2-Benzyl Carbamidoacetamidoanthraquinone [Example 9]
IC50 ZR-75-1 [1]: 6.4 µg/mL | IC50 LNCaP [2]: >20 µg/mL | activity inhibition (%) (HIV-1 RT(p66)): 53.4% | activity inhibition / anti-virus ability (in words) (HIV-1 RT(p66)): anti-virus ability but not so strong as the others | IC50 KB-V (+VLB) ([3]; with vinblastine (+VLB)): 1.4 µg/mL | IC50 KB-V (−VLB) ([3]; without vinblastine (−VLB)): >20 µg/mL | IC50 Lu1 (Lu1: human lung cell): 9.6 µg/mL | IC50 A431 [4]: 1.7 µg/mL | IC50 U373 (U373: human glioma cell): 4.7 µg/mL | IC50 KB [5]: 19.2 µg/mL | IC50 HT [6]: 8.3 µg/mL | IC50 Col2 (Col2: human colon cell): 9.6 µg/mL | IC50 P-388 [7]: >5 µg/mL | IC50 Mel2 [8]: 15.1 µg/mL | IC50 BC 1 (BC-1: human breast cell): 6.4 µg/mL

4-amino-1-benzyl Carbamidoacetamidoanthraquinone [Example 5]
IC50 ZR-75-1 [1]: >20 µg/mL | IC50 LNCaP [2]: >20 µg/mL | activity inhibition (%) (HIV-1 RT(p66)): 23.0% | activity inhibition / anti-virus ability (in words) (HIV-1 RT(p66)): anti-virus ability but not so strong as the others | IC50 KB-V (+VLB) ([3]; with vinblastine (+VLB)): 2.9 µg/mL | IC50 KB-V (−VLB) ([3]; without vinblastine (−VLB)): >20 µg/mL | IC50 Lu1 (Lu1: human lung cell): >20 µg/mL | IC50 A431 [4]: >20 µg/mL | IC50 U373 (U373: human glioma cell): >20 µg/mL | IC50 KB [5]: >20 µg/mL | IC50 HT [6]: >20 µg/mL | IC50 Col2 (Col2: human colon cell): >20 µg/mL | IC50 P-388 [7]: >5 µg/mL | IC50 Mel2 [8]: >20 µg/mL | IC50 BC 1 (BC-1: human breast cell): >20 µg/mL

N=C(N)NCC(=O)Nc1ccc(N)c2c1C(=O)c1ccccc1C2=O [Example 2, 4-amino-1-guanido acetamidoanthraquinone]
IC50 [1]: 3.4 µg/mL (≈ 10.1 µM) | IC50 [2]: 4.1 µg/mL (≈ 12.2 µM) | cytotoxic activity to cancer cell lines (in words) (human cancer cell lines): more effective to most cancer cell lines | IC50 (HIV-1 RT(p66); [9]): 25.8 µM | inhibition at 200 µg/mL (HIV-1 RT(p66)): 99.5% | activity inhibition / anti-virus ability (in words) (HIV-1 RT(p66)): excellent effect on activity inhibition | IC50 ([3]; with vinblastine (+VLB)): 16 µg/mL (≈ 47.4 µM) | IC50 ([3]; without vinblastine (−VLB)): > 20 µg/mL | IC50 (Lu1: human lung cell): 3.1 µg/mL (≈ 9.19 µM) | IC50 [4]: 0.4 µg/mL (≈ 1.19 µM) | IC50 (U373: human glioma cell): 0.6 µg/mL (≈ 1.78 µM) | IC50 [5]: 1.2 µg/mL (≈ 3.56 µM) | IC50 [6]: 2 µg/mL (≈ 5.93 µM) | IC50 (Col2: human colon cell): 4.2 µg/mL (≈ 12.5 µM) | IC50 [7]: > 5 µg/mL | IC50 [8]: 4.4 µg/mL (≈ 13 µM) | IC50 (BC-1: human breast cell): 1.6 µg/mL (≈ 4.74 µM)

N=C(N)NCC(=O)Nc1cccc2c1C(=O)c1cccc(N)c1C2=O [Example 3, 5-amino-1-guanido acetamidoanthraquinone]
IC50 [1]: 1.7 µg/mL (≈ 5.04 µM) | IC50 [2]: 9 µg/mL (≈ 26.7 µM) | cytotoxic activity to cancer cell lines (in words) (human cancer cell lines): more effective to most cancer cell lines | IC50 (HIV-1 RT(p66); [9]): 20.5 µM | inhibition at 200 µg/mL (HIV-1 RT(p66)): 99.6% | activity inhibition / anti-virus ability (in words) (HIV-1 RT(p66)): excellent effect on activity inhibition | IC50 ([3]; with vinblastine (+VLB)): 13.2 µg/mL (≈ 39.1 µM) | IC50 ([3]; without vinblastine (−VLB)): > 20 µg/mL | IC50 (Lu1: human lung cell): 9.3 µg/mL (≈ 27.6 µM) | IC50 [4]: 0.2 µg/mL (≈ 0.593 µM) | IC50 (U373: human glioma cell): 1 µg/mL (≈ 2.96 µM) | IC50 [5]: 4.2 µg/mL (≈ 12.5 µM) | IC50 [6]: 2.5 µg/mL (≈ 7.41 µM) | IC50 (Col2: human colon cell): 4.7 µg/mL (≈ 13.9 µM) | IC50 [7]: > 5 µg/mL | IC50 [8]: 12 µg/mL (≈ 35.6 µM) | IC50 (BC-1: human breast cell): 3 µg/mL (≈ 8.89 µM)

N=C(N)NCC(=O)Nc1ccc2c(c1)C(=O)c1ccccc1C2=O [Example 4, 2-guanidinoacetamido anthraquinone]
IC50 ZR-75-1 [1]: 3.6 µg/mL (≈ 11.2 µM) | IC50 LNCaP [2]: 12.5 µg/mL (≈ 38.8 µM) | cytotoxic activity to cancer cell lines (in words) (human cancer cell lines): more effective to most cancer cell lines | IC50 (HIV-1 RT(p66)): 18.9 µg/mL | activity inhibition (%) (HIV-1 RT(p66)): 99.4% | activity inhibition / anti-virus ability (in words) (HIV-1 RT(p66)): excellent effect on activity inhibition | IC50 KB-V (+VLB) ([3]; with vinblastine (+VLB)): 7.5 µg/mL (≈ 23.3 µM) | IC50 KB-V (−VLB) ([3]; without vinblastine (−VLB)): >20 µg/mL | IC50 Lu1 (Lu1: human lung cell): 14.1 µg/mL (≈ 43.7 µM) | IC50 A431 [4]: 0.8 µg/mL (≈ 2.48 µM) | IC50 U373 (U373: human glioma cell): 0.88 µg/mL (≈ 2.73 µM) | IC50 KB [5]: 2.9 µg/mL (≈ 9 µM) | IC50 HT [6]: 2.1 µg/mL (≈ 6.52 µM) | IC50 Col2 (Col2: human colon cell): 12.1 µg/mL (≈ 37.5 µM) | IC50 P-388 [7]: >5 µg/mL | IC50 Mel2 [8]: 9.8 µg/mL (≈ 30.4 µM) | IC50 BC 1 (BC-1: human breast cell): 4.9 µg/mL (≈ 15.2 µM)

N=C(N)NCC(=O)Nc1ccc2c(c1N)C(=O)c1ccccc1C2=O [Example 6, 1-amino-2-guanido acetamidoanthraquinone]
IC50 [1]: 6.9 µg/mL (≈ 20.5 µM) | IC50 [2]: > 20 µg/mL | cytotoxic activity to cancer cell lines (in words) (human cancer cell lines): more effective to most cancer cell lines | IC50 (HIV-1 RT(p66); [9]): 119 µM | inhibition at 200 µg/mL (HIV-1 RT(p66)): 99.7% | activity inhibition / anti-virus ability (in words) (HIV-1 RT(p66)): excellent effect on activity inhibition | IC50 ([3]; with vinblastine (+VLB)): 7.9 µg/mL (≈ 23.4 µM) | IC50 ([3]; without vinblastine (−VLB)): > 20 µg/mL | IC50 (Lu1: human lung cell): > 20 µg/mL | IC50 [4]: 0.9 µg/mL (≈ 2.67 µM) | IC50 (U373: human glioma cell): 2 µg/mL (≈ 5.93 µM) | IC50 [5]: 5.9 µg/mL (≈ 17.5 µM) | IC50 [6]: 4.5 µg/mL (≈ 13.3 µM) | IC50 (Col2: human colon cell): > 20 µg/mL | IC50 [7]: > 5 µg/mL | IC50 [8]: > 20 µg/mL | IC50 (BC-1: human breast cell): 7.8 µg/mL (≈ 23.1 µM)

N=C(N)NCC(=O)Nc1ccc2c(c1)C(=O)c1ccc(N)cc1C2=O [Example 7, 6-amino-2-guanidoacetamidoanthraquinone]
IC50 [1]: 3.3 µg/mL (≈ 9.78 µM) | IC50 [2]: 6.3 µg/mL (≈ 18.7 µM) | cytotoxic activity to cancer cell lines (in words) (human cancer cell lines): more effective to most cancer cell lines | IC50 (HIV-1 RT(p66); [9]): 37.1 µM | inhibition at 200 µg/mL (HIV-1 RT(p66)): 99.7% | activity inhibition / anti-virus ability (in words) (HIV-1 RT(p66)): excellent effect on activity inhibition | IC50 ([3]; with vinblastine (+VLB)): > 20 µg/mL | IC50 ([3]; without vinblastine (−VLB)): > 20 µg/mL | IC50 (Lu1: human lung cell): > 20 µg/mL | IC50 [4]: 0.6 µg/mL (≈ 1.78 µM) | IC50 (U373: human glioma cell): 0.4 µg/mL (≈ 1.19 µM) | IC50 [5]: 1.2 µg/mL (≈ 3.56 µM) | IC50 [6]: 1.6 µg/mL (≈ 4.74 µM) | IC50 (Col2: human colon cell): 3.2 µg/mL (≈ 9.49 µM) | IC50 [7]: 1.1 µg/mL (≈ 3.26 µM) | IC50 [8]: 6.8 µg/mL (≈ 20.2 µM) | IC50 (BC-1: human breast cell): 3.6 µg/mL (≈ 10.7 µM)
